The results in this text go back to patent US6638938B1, “Method for preventing tissue injury from hypoxia” (Cell Therapeutics, Inc., priority 1993, dated 2003).

In test [1] the test system is human neutrophils. Put plainly: neutrophil chemotaxis in Boyden chambers to zymosan activated serum. It counts as cell-based. From the text: Human recombinant interleukin-1α (IL-1) was obtained from Hoffmann-LaRoche, Inc. (Nutley, N.J.), frozen inaliquots and thawed daily for use. Ketamine hydrochloride was obtained from Parke-Davis (Morris Plains, N.J.), xylazine from Haver (New York, N.J.), ^125I labeled bovine serum albumin (BSA) from ICN Radiochemicals (Irvine, Calif.), and heparin sodium from Elkins-Sinn, Inc. (Cherry Hill, N.J.). All other reagents were purchased from Sigma Chemical Co. (St. Louis, Mo.). Neutrophils were purified from human blood by well described methods. Venous blood was anticoagulated with heparin and the cellular elements were separated from platelet-rich plasma by centrifugation. Cell pellets were resuspended in platelet-poor plasma and diluted 1:4 with 6% dextran (Pharmacia Fine Chemicals, Piscataway, N.J.) in saline. Red cells were separated from leukocytes by sedimentation. Leukocyte-rich supernatants were then aspirated, underlain with Ficoll-Hypaque (Pharmacia Fine Chemicals), and centrifuged at 275×g to separate neutrophils and monocytes. […]
Each sample was run in triplicate. Unstimulated locomotion was measured using control neutrophils in Hank's Balanced Salt Solution (HBSS) in the top chamber and HBSS in the bottom chamber. Stimulated locomotion was measured using twice-washed neutrophils in HBSS in the top chamber with and without Lisofylline and zymosan-activated serum (ZAS) in the bottom chamber. […] Indices of unstimulated or stimulated locomotion were expressed as the number of neutrophils migrating through the filter in 5 random, high-power objective fields (HPF).
Neutrophil chemotactic activity was determined by Boyden chamber assay and quantitated as the number of migrating PMN/5HPF using zymosan-activated serum (ZAS) as the chemoattractant (Repine et al., J. Reticuloendo. Soc. 24:217, 1978). Neutrophil adherence was assessed by quantitating the percentage of neutrophils adhering to nylon fibers following addition of phorbol myristate acetate (PMA 10-^6M, Sigma) (Rasp et al., J. Reticuloendo. Soc. 25:101, 1979). […]

In test [2] the test system is human neutrophils (PA, lyso-PA). In words: PA and lyso-PA mass in human neutrophils after hypoxia/reoxygenation. It is filed as cell-based. As for the experimental part:
This example provides evidence from a group of experiments of the nexus and relationship between inhibiting linoleate-enriched PA species and reversal of hypoxic/reoxygenation tissue injury with Lisofylline. Lisofylline treated human neutrophils were exposed to hypoxia and then reoxygenation in vitro. Human neutrophils (PMN) were prepared from heparinized blood obtained from consenting, healthy human volunteers, isolated and highly purified (>99%)-by percoll gradient anddifferential centrifugation and resuspended in HBSS (Hanks balanced salt solution). Human neutrophils were placed in hypoxia (95% N2+5% CO2) for 60 min and then reoxygenated (21% O2+5% CO2) for 20 min.
Following hypoxia/reoxygenation, human neutrophils had increased PA concentrations with a retention time (Rf) characteristic of linoleate-enriched PA species. The analysis was done by fixing the neutrophils in ice-cold methanol, extracting the lipids and then separating them by HPLC using a Waters μ-Porosil silica column and an anisocratic gradient (Bursten et al., J. Biol. Chem. 266:20732, 1991). Lipids in the column effluent were monitored at 206-224nm. HPLC fractions were also analyzed by thin layer chromatography (TLC), amine content, acyl content and mass spectroscopy to confirm peak identities. Fast-atom bombardrment (FAB) mass spectroscopy spectra were acquired using a VG 70 SEQ tandem hybrid instrument of EBqQ geometry (VG Analytical, Altricham UK) as described in Bursten et al. The mass of total PA varied from 0.65-0.75% in unstimulated neutrophils to 2.7-3.6% of total detectable lipids in stimulated neutrophils (i.e., increased by 3.5-5 fold), whereas lyso-PA mass in neutrophils pretreated with Lisofylline and subject to hypoxia/reoxygenation stimulation could range as high as 7-8% of total detectable lipids. Hypoxia/reoxygenated neutrophils preincubated with 10 μM to 100 μM Lisofylline had decreased PA and increased lyso-PA total mass compared to untreated but stimulated neutrophils.

Setting [3] is: hypoxia/reoxygenated neutrophils preincubated with 10 μM to 100 μM, versus untreated but stimulated.

Regarding `C[C@@H](O)CCCCn1c(=O)c2c(ncn2C)n(C)c1=O` [Lisofylline, 1-R-(5-hydroxyhexyl)-3,7-dimethylxanthine], the “Neutrophil Chemotaxis in Boyden Chambers in vitro” value in test [1] (Neutrophils + ZAS + Lisofylline 1 μM) is 15.0 (2)δ PMN/5HPF. The “Neutrophil Chemotaxis in Boyden Chambers in vitro” value in test [1] (Neutrophils + ZAS + Lisofylline 50 μM) is 11.1 (2)δ PMN/5HPF. In test [1] (ZAS as chemoattractant, in vitro), the “stimulated human neutrophil chemotaxis” value was “reduced”. Further, in test [2] (setting [3]), the PA total mass result was “decreased” and the lyso-PA total mass result is “increased”. Moreover, the lyso-PA mass in test [2] (neutrophils pretreated with Lisofylline, hypoxia/reoxygenation stimulation, could range as high as) is 7-8 % of total detectable lipids.
